Values joined by “and” are separate entries in the source; they are usually repeats but may differ in a detail not shown here. Equal values may be shown once. Values belong to the molecule of their own block, whether it stands above or below them.
System: 379773-124-R-J2-PDC complex spheroids, viability % test/control
Test: Anticancer human tumor 379773-124-R-J2-PDC patient-derived endometrial carcinoma cell line growth inhibition [CLK]
Details: for viability, T/C: stronger effect = lower value
From the text: A high-throughput screen of multi-cell type tumor spheroids was designed to identify active combinations of […] and targeted small molecules. Complex spheroids include a stromal component modeled by human endothelial cells (HUVEC) and fibroblasts modeled by human mesenchymal stem cells (MSCs). The concentration ranges selected for each drug and investigational agent were based upon clinically achievable concentrations if the clinical Cmax of the agent was known.
Compounds. The drugs and investigational agents: cirtuvivint (SM08502; NSC835563), CC-671 (NSC850746), vemurafenib (NSC761431), tapotoclax (NSC804041), sotorasib (NSC818433), adagrasib (NSC831453), MRTX-1133 (NSC836407), BAY2416964 (NSC825713), copanlisib (NSC816437), inavolisib (NSC800729), abemaciclib (NSC768073), osimertinib (NSC779217), entinostat (NSC756642), eltanexor (KPT-8602, NSC794443), venetoclax (NSC766270), ceralasertib (NSC777638), bortezomib (NSC756655), olaparib (NSC753686), talazoparib (NSC767125), alisertib (NSC759677), peposertib (NSC802822), gemcitabine (NSC613327), 5-fluorouracil (NSC19893), SN-38 (NSC673596), oxaliplatin (NSC266046), paclitaxel (NSC125973), and doxorubicin (NSC123127), were obtained from the National Cancer Institute (NCI) Developmental Therapeutics Program Chemical Repository. The FDA-approved anticancer drug set is available from the Developmental Therapeutics Program at https://dtp.cancer.gov/organization/dscb/obtaining/available plates.htm. […] The stock solutions were prepared in dimethyl sulfoxide (DMSO, Sigma-Aldrich, St. Louis, MO, cat. D2650), except for the platinum complexes which were prepared in saline (Quality Biological, Gaithersburg, MD, cat. 114-055-101), at 800-fold the tested concentration and stored at -70 degrees C prior to their use. All drugs and investigational agents were tested over a range starting from a high concentration at or near the clinical Cmax and decreasing in half-log increments. If the clinical Cmax for an agent had not been determined, the highest concentration tested was 10 microM.
Cell Culture. All cells were maintained in an incubator at 37 degrees C and 5% CO2 with 95% humidity. The PDC lines were cultured according to standard operating procedures established by the NCI PDMR. Briefly, all PDCs were thawed and cultured in Matrigel-coated flasks prepared with a working solution of 1X Ham's F-12 nutrient mix, without supplementation (Invitrogen, Waltham, MA, cat. 11765054), 100 U/mL penicillin-streptomycin (Invitrogen, cat. 15140122), and 2.5% Matrigel (Corning Inc., Corning, NY, cat. 354248) for the first three passages. The 947758-054-R-J2-PDC line was cultured in 6B/Colon 1A media, which includes advanced DMEM/F-12 (Thermo Fisher Scientific, cat. 12634028), 10 mM HEPES (Thermo Fisher Scientific, cat. 15630080), 1X GlutaMAX supplement (Thermo Fisher Scientific, cat. 35050061), 0.1 mg/mL primocin (InvivoGen, cat. ant-pm-2), 10% defined fetal bovine serum, heat inactivated (HyClone Laboratories Inc., cat. SH30070.03HI), 1.25 mM N-Acetyl-L-cysteine (Sigma-Aldrich, cat. A9165), 10 mM nicotinamide (Sigma-Aldrich, cat. N0636), 1X B-27 supplement (Thermo Fisher Scientific, cat. 17504044), 1X N-2 supplement (Thermo Fisher Scientific, cat. 17502048), and 10 microM Y-27632 dihydrochloride (Tocris Bioscience, cat. 1254). The 876862-298-R-J1-PDC was cultured in 6E media, which includes all 6B/Colon 1A media components plus 50% L-WRN conditioned media (ATCC, cat. CRL-3276), 50 ng/mL recombinant human EGF recombinant protein (hEGF; Thermo Fisher Scientific, cat. PHG0311), 10 ng/mL recombinant human fibroblast growth factor 10 (hGFG-10; PeproTech, cat. 100-26), 1 ng/mL recombinant human fibroblast growth factor 2 (hFGF-2; PeproTech, cat. 100-18B), and 1 µM prostaglandin E2 (PGE2; Tocris, cat. 2296). The 227483-062-R1-J1-PDC line was cultured in Panc media, containing all 6E components except hFGF-2, with the addition of 500 nM SB-431542 (Selleckchem, cat. S1067) and 10 nM gastrin (Tocris, cat. 3006). […]
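Note: compound exposure lasted seven days before the viability readout.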
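Throughout, for viability, T/C: 100% = DMSO vehicle control wells.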

- IC50 (curve of compound): 72.6 nM and 45.9 nM
Compound: NC(=O)C(=Cn1cnc(-c2cc(C(F)(F)F)cc(C(F)(F)F)c2)n1)c1cncnc1
- viability, T/C (compound 0.00949 µM): 83.8% and 85.3%
- viability, T/C (compound 0.03 µM): 74.8% and 59.7%
- viability, T/C (compound 0.0949 µM): 41.1% and 33.7%
- viability, T/C (compound 0.3 µM): 19.5% and 14.4%
- viability, T/C (compound 0.949 µM): 13.9% and 7.66%
- viability, T/C (compound 3 µM): 4.42% and 2.99%

- IC50 (curve of first compound, second compound 0.0316 µM): > 10000 nM
- IC50 (curve of first compound, second compound 0.1 µM): < 31.6 nM
- IC50 (curve of first compound, second compound 0.316 µM): < 31.6 nM
- IC50 (curve of first compound, second compound 1 µM): < 31.6 nM
- IC50 (curve of first compound, second compound 3.16 µM): < 31.6 nM
- IC50 (curve of first compound, second compound 10 µM): < 31.6 nM
Compound: C=CC(=O)N1CCN(c2nc(=O)n(-c3c(C)ccnc3C(C)C)c3nc(-c4c(O)cccc4F)c(F)cc23)C(C)C1 (centres undefined) + CNC(=O)c1ccc(Nc2nc(OC3CCCC3)c3c(-c4ccc5nc(C)oc5c4)c[nH]c3n2)c(OC)c1
- viability, T/C (second compound 0.0316 µM, first compound 0.0316 µM): 74.3%
- viability, T/C (second compound 0.0316 µM, first compound 0.1 µM): 80%
- viability, T/C (second compound 0.0316 µM, first compound 0.316 µM): 76.1%
- viability, T/C (second compound 0.0316 µM, first compound 1 µM): 76.5%
- viability, T/C (second compound 0.0316 µM, first compound 3.16 µM): 76.5%
- viability, T/C (second compound 0.0316 µM, first compound 10 µM): 71.3%
- viability, T/C (second compound 0.1 µM, first compound 0.0316 µM): 34.9%
- viability, T/C (second compound 0.1 µM, first compound 0.1 µM): 46.9%
- viability, T/C (second compound 0.1 µM, first compound 0.316 µM): 42.7%
- viability, T/C (second compound 0.1 µM, first compound 1 µM): 39.2%
- viability, T/C (second compound 0.1 µM, first compound 3.16 µM): 36.6%
- viability, T/C (second compound 0.1 µM, first compound 10 µM): 38.3%
- viability, T/C (second compound 0.316 µM, first compound 0.0316 µM): 43.6%
- viability, T/C (second compound 0.316 µM, first compound 0.1 µM): 33%
- viability, T/C (second compound 0.316 µM, first compound 0.316 µM): 41.9%
- viability, T/C (second compound 0.316 µM, first compound 1 µM): 41.6%
- viability, T/C (second compound 0.316 µM, first compound 3.16 µM): 37%
- viability, T/C (second compound 0.316 µM, first compound 10 µM): 38.5%
- viability, T/C (second compound 1 µM, first compound 0.0316 µM): 34.6%
- viability, T/C (second compound 1 µM, first compound 0.1 µM): 33.1%
- viability, T/C (second compound 1 µM, first compound 0.316 µM): 45%
- viability, T/C (second compound 1 µM, first compound 1 µM): 34.5%
- viability, T/C (second compound 1 µM, first compound 3.16 µM): 32.6%
- viability, T/C (second compound 1 µM, first compound 10 µM): 28.4%
- viability, T/C (second compound 3.16 µM, first compound 0.0316 µM): 31.1%
- viability, T/C (second compound 3.16 µM, first compound 0.1 µM): 34.5%
- viability, T/C (second compound 3.16 µM, first compound 0.316 µM): 34.9%
- viability, T/C (second compound 3.16 µM, first compound 1 µM): 28.1%
- viability, T/C (second compound 3.16 µM, first compound 3.16 µM): 29%
- viability, T/C (second compound 3.16 µM, first compound 10 µM): 27.7%
- viability, T/C (second compound 10 µM, first compound 0.0316 µM): 27.8%
- viability, T/C (second compound 10 µM, first compound 0.1 µM): 33.1%
- viability, T/C (second compound 10 µM, first compound 0.316 µM): 29.2%
- viability, T/C (second compound 10 µM, first compound 1 µM): 28.2%
- viability, T/C (second compound 10 µM, first compound 3.16 µM): 40%
- viability, T/C (second compound 10 µM, first compound 10 µM): 18.4%

Source: PubChem BioAssay AID2060604 (Molecular Pharmacology Branch, DTP, NCI, 2025)
